Measured values published in publication PMC11288129, “Diversely evolved xibalbin variants from remipede venom inhibit potassium channels and activate PKA-II and Erk1/2 signaling” (BMC Biology, 2024).
Marks after values point to notes of the source that are not given here. Positions of bridges follow the written chain, without caps; N, C: chain ends. No end group written: not given here.

How the values were obtained:
rNav1.4 = assay: TEVC inhibition, Nav1.4; format: cell-based, rat; conditions: 1 µM, Xenopus oocytes, ND96, 18–22 °C, mean ± SEM, n ≥ 3
Text: For the expression of Kv channels rat Kv1.1 (GenBank accession number: NM_173095 [88, 89]), rKv1.2 (NM_012970 [90, 91]), human Kv1.3 (NM_002232 [92, 93]), rKv1.4 (NM_012971 [94, 95]), rKv1.6 (NM_023954 [96, 97]), hKv2.1 (NM_004975 [98, 99]), hKv3.1 (NM_004976 [100, 101]), rKv4.2 (NM_031739 [102, 103]), hKv10.1 (NM_172362 [104, 105]), hERG1 [Kv11.1, (NM_000238 [106, 107])], and Shaker IR [from Drosophila melanogaster, (NM_167595 [108, 109])], Nav channels [rNav1.2 (NM_012647 [42, 110]), rNav1.4 (NM_013178 [111, 112]), hNav1.5 (NM_198056 [113, 114]), mNav1.6 (NM_001077499 [115, 116]), BgNav [from Blattella germanica, (DQ466887 [117, 118])] and the auxiliary subunits rβ1 (NM_001271045 [119, 120]), hβ1 (NM_001037 [121, 122]), and TipE [from D. melanogaster, (NM_079196 [109, 123])], and Cav channels hCav3.1 [124, 125], hCav3.2 [126, 127], and hCav3.3 [128, 129] in Xenopus oocytes, the linearized plasmids were transcribed using the T7 or SP6 mMESSAGEmMACHINE transcription kit (Ambion, Austin, TX, USA). […]
Whole-cell currents of oocytes were recorded 1 to 3 days after injection. […] The current–voltage (IV) relationships were determined by 100-ms step depolarizations between − 90 and + 40 mV, using 5 mV increments. […]

hCav3.1 = assay: TEVC inhibition, Cav3.1; format: cell-based, human; design: unit not given here; conditions: 1 µM
Text: (§1) For the expression of Kv channels rat Kv1.1 (GenBank accession number: NM_173095 [88, 89]), rKv1.2 (NM_012970 [90, 91]), human Kv1.3 (NM_002232 [92, 93]), rKv1.4 (NM_012971 [94, 95]), rKv1.6 (NM_023954 [96, 97]), hKv2.1 (NM_004975 [98, 99]), hKv3.1 (NM_004976 [100, 101]), rKv4.2 (NM_031739 [102, 103]), hKv10.1 (NM_172362 [104, 105]), hERG1 [Kv11.1, (NM_000238 [106, 107])], and Shaker IR [from Drosophila melanogaster, (NM_167595 [108, 109])], Nav channels [rNav1.2 (NM_012647 [42, 110]), rNav1.4 (NM_013178 [111, 112]), hNav1.5 (NM_198056 [113, 114]), mNav1.6 (NM_001077499 [115, 116]), BgNav [from Blattella germanica, (DQ466887 [117, 118])] and the auxiliary subunits rβ1 (NM_001271045 [119, 120]), hβ1 (NM_001037 [121, 122]), and TipE [from D. melanogaster, (NM_079196 [109, 123])], and Cav channels hCav3.1 [124, 125], hCav3.2 [126, 127], and hCav3.3 [128, 129] in Xenopus oocytes, the linearized plasmids were transcribed using the T7 or SP6 mMESSAGEmMACHINE transcription kit (Ambion, Austin, TX, USA). Mature female animals were purchased from Nasco (Fort Atkinson, USA) and were housed in the Aquatic Facility (KU Leuven) in compliance with the regulations of the European Union (EU) concerning the welfare of laboratory animals as declared in Directive 2010/63/EU. The use of X. laevis oocytes was approved by the Animal Ethics Committee of the KU Leuven with the license number P186/2019. Stage V–VI oocytes were collected from anesthetized female X. laevis frog as previously described, with the frogs anesthetized by placement in 0.1% tricaine solution (amino benzoic acid ethyl ester; Merck, USA). Oocyte microinjection was performed using a microinjector (Drummond Scientifc®, USA), with a programmed cRNA injection volume of 4—50 nL, depending on the channel subtype. The oocytes were incubated in ND96 solution (96 mM NaCl, 2 mM KCl, 1.8 mM CaCl2, 2 mM MgCl2, and 5 mM HEPES, pH 7.4), supplemented with 50 mg/l gentamicin sulfate.
(§2) Electrophysiological measurements were performed at room temperature (18–22 °C) using the two-electrode voltage clamp (TEVC) technique. Data were obtained using a GeneClamp 500 amplifier (Axon Instruments, USA), and Clampex9 software (Axon Instruments), responsible for data acquisition and storage. Glass micropipettes were produced using glass capillaries (borosilicate WPI 1B120-6) and drawn in a WPI (World Precision Instruments, USA) manual stretcher. The bath and perfusion solutions were either the previously described ND96 (Nav and Kv channels) or calcium-free ND96 supplemented with 10 mM BaCl2 (Cav channels).
(§3) Whole-cell currents of oocytes were recorded 1 to 3 days after injection. Current and voltage electrodes were filled with 3 M KCl and their resistance was adjusted from 0.7 to 2.0 MΩ. Currents were sampled at 20 kHz (Nav channels) and 10 kHz (Kv and Cav channels) and filtered using a four-pole Bessel low-pass Bessel filter, at 1 kHz for sodium, and […] for potassium and calcium, except for the hERG ion channel, in which the currents were filtered at 1 kHz. Leak subtraction was performed using a -P/4 protocol. Kv1.x currents were evoked by 500 ms depolarizations to 0 mV followed by a 500-ms pulse to − 50 mV, from a holding potential of − 90 mV. Kv2.1, Kv3.1, and Kv4.2 currents were elicited by 500 ms pulses to + 20 mV from a holding potential of − 90 mV. Current traces of Kv10.1 were elicited by 2 s depolarization to 0 mV, from a holding potential of − 90 mV. Current traces of hERG1 channel were elicited by applying a + 40 mV prepulse for 2 s followed by a step of − 120 mV for 2 s. Sodium current traces were evoked by a 100 ms depolarization to 0 mV, from a holding potential of − 90 mV. The current–voltage (IV) relationships were determined by 100-ms step depolarizations between − 90 and + 40 mV, using 5 mV increments. […]

Kv1.1 = assay: TEVC inhibition, Kv1.1; format: cell-based, rat; design: Inhibition data, Kv1.1: unit not given here; conditions: 1 µM
Text: as §1, §2, §3

rNav1.2 = assay: TEVC current-voltage relationship (Vhalf), Nav1.2; format: cell-based, rat; design: Vhalf, toxin inactivation, Nav1.2 / Vhalf, toxin activation, Nav1.2: unit not given here; conditions: for Vhalf, toxin activation, Nav1.2 / Vhalf, toxin inactivation, Nav1.2: 1 µM
Text: as §1, §2, §3

hNav1.5 = assay: TEVC current-voltage relationship (Vhalf), Nav1.5; format: cell-based, human; design: Vhalf, toxin inactivation, Nav1.5 / Vhalf, toxin activation, Nav1.5: unit not given here; conditions: for Vhalf, toxin activation, Nav1.5 / Vhalf, toxin inactivation, Nav1.5: 1 µM
Text: as §1, §2, §3

rKv1.2 = assay: TEVC inhibition, Kv1.2; format: cell-based, rat; conditions: 1 µM
Text: as §1, §2, §3

rKv1.4 = assay: TEVC inhibition, Kv1.4; format: cell-based, rat; design: unit not given here; conditions: 1 µM
Text: as §1, §2, §3

Row | Sequence | inhibition of Nav1.4 (rNav1.4) [%] | Inhibition data, Cav3.1 (hCav3.1; replicate 1) | Inhibition data, Cav3.1 (hCav3.1; replicate 2) | Inhibition data, Cav3.1 (hCav3.1; replicate 3) | Inhibition data, Cav3.1 (hCav3.1; replicate 4) | inhibition of Kv1.1 (Kv1.1) | Inhibition data, Kv1.1 (Kv1.1; replicate 1) | Inhibition data, Kv1.1 (Kv1.1; replicate 2) | Inhibition data, Kv1.1 (Kv1.1; replicate 3) | Inhibition data, Kv1.1 (Kv1.1; replicate 4) | Vhalf, toxin activation, Nav1.2 (rNav1.2; replicate 1) | Vhalf, toxin inactivation, Nav1.2 (rNav1.2; replicate 1) | Vhalf, toxin activation, Nav1.2 (rNav1.2; replicate 2) | Vhalf, toxin inactivation, Nav1.2 (rNav1.2; replicate 2) | Vhalf, toxin activation, Nav1.2 (rNav1.2; replicate 3) | Vhalf, toxin inactivation, Nav1.2 (rNav1.2; replicate 3) | Vhalf, toxin activation, Nav1.2 (rNav1.2; replicate 4) | Vhalf, toxin inactivation, Nav1.2 (rNav1.2; replicate 4) | Vhalf, toxin activation, Nav1.5 (hNav1.5; replicate 1) | Vhalf, toxin inactivation, Nav1.5 (hNav1.5; replicate 1) | further results
1 | KRSCIRRFGRCDHRPNDCCYNSSCRCNLWGSNCRCQRMGLFQKWGK (disulfide 4-19, 11-24, 18-35, 26-33) [xib13] | 33.0 ± 2.4 | 0.0 | 0.0 | 0.0 | 0.0 | inhibit especially Kv1.1 channels | 83.4 | 86.7 | 85.0 | 83.1 | -21.2222 | -50.4402 | -22.3496 | -54.6262 | -23.8888 | -52.3347 | -19.606 | -52.7049 | -22.7699 | -59.4076 | Vhalf activation shift, Nav1.2 (rNav1.2; 1 µM versus control (ND96)): 1.5 mV; Vhalf activation shift, Nav1.5 (hNav1.5; 1 µM versus control (ND96)): 5.9*** mV; Vhalf, toxin activation, Nav1.5 (hNav1.5; replicate 2): -23.9735; Vhalf, toxin inactivation, Nav1.5 (hNav1.5; replicate 2): -59.2524; Vhalf, toxin activation, Nav1.5 (hNav1.5; replicate 3): -25.0967; Vhalf, toxin inactivation, Nav1.5 (hNav1.5; replicate 3): -59.4209; Inhibition data, Kv1.2 (rKv1.2; replicate 1): 58.6; Inhibition data, Kv1.2 (rKv1.2; replicate 2): 71.3; Inhibition data, Kv1.2 (rKv1.2; replicate 3): 77.9; Inhibition data, Kv1.4 (rKv1.4; replicate 1): 0.0; Inhibition data, Kv1.4 (rKv1.4; replicate 2): 0.0; Inhibition data, Kv1.4 (rKv1.4; replicate 3): 0.0; Inhibition data, Kv1.4 (rKv1.4; replicate 4): 0.0
2 | RLFCIRHHKYCGHRPKRCCSGLFCRCNTFGTNCRCQSKGALGKLI (disulfide 4-19, 11-24, 18-35, 26-33) [xib1] | 21.8 ± 3.3 | 0.0 | 0.0 | 0.0 | 0.0 | inhibit especially Kv1.1 channels | 76.3 | 66.2 | 76.2 | 75.3 | -16.7542 | -48.4729 | -15.666 | -54.2238 | -21.743 | -57.3333 | -24.4632 | -61.3134 | -27.2261 | -60.2865 | Vhalf inactivation shift, Nav1.5 (hNav1.5; 1 µM versus control (ND96)): 1.5 mV; Vhalf, toxin activation, Nav1.5 (hNav1.5; replicate 2): -20.8548; Vhalf, toxin inactivation, Nav1.5 (hNav1.5; replicate 2): -53.6522; Vhalf, toxin activation, Nav1.5 (hNav1.5; replicate 3): -24.2578; Vhalf, toxin inactivation, Nav1.5 (hNav1.5; replicate 3): -54.899; Vhalf, toxin activation, Nav1.5 (hNav1.5; replicate 4): -22.0356; Vhalf, toxin inactivation, Nav1.5 (hNav1.5; replicate 4): -51.823; inhibition of Kv1.2 (rKv1.2; Xenopus oocytes, ND96, 18–22 °C, mean ± SEM, n ≥ 3): 50.2 ± 2.6%; Inhibition data, Kv1.2 (rKv1.2; replicate 1): 52.8; Inhibition data, Kv1.2 (rKv1.2; replicate 2): 47.6; Inhibition data, Kv1.2 (rKv1.2; replicate 3): 48.2; Inhibition data, Kv1.2 (rKv1.2; replicate 4): 46.0; Inhibition data, Kv1.4 (rKv1.4; replicate 1): 0.0; Inhibition data, Kv1.4 (rKv1.4; replicate 2): 0.0; Inhibition data, Kv1.4 (rKv1.4; replicate 3): 0.0; Inhibition data, Kv1.4 (rKv1.4; replicate 4): 0.0
